Several values for one entry are separate records, joined by “and”; a condition that tells them apart may be missing. Equal values may be shown once. Entries after “also recorded” stand apart in the source; their conditions may differ. Read-outs that look alike come from different tables or passages of the source.
How the values were obtained:
[1] = Solid-state stability study (XRPD, TGA, LCMS); format: physicochemical; conditions: for LCMS API / TGA mass loss / XRPD: solid state
Protocol: The solid-state stability of Form HCl2 was determined by incubating samples of approximately 18 mg at different conditions (temperature and relative humidity). After 1 week and 4 weeks, the samples were analyzed by XRPD to determine the polymorphic form, by TGA to determine the mass loss upon heating and by LCMS to determine the API purity. The experimental details and results are described in Table 6.

[2] = Solution stability study in saline (LCMS); format: physicochemical
Protocol: Experiments were performed in saline (0.9% NaCl in water). Two stock solutions of Form HCl2 in saline were prepared, one with a concentration of 10 mg/mL and one with a concentration of 100 mg/mL. The 10 mg/mL stock solution was prepared by dissolving 56 mg of material in 5 mL of saline. The 100 mg/mL stock solution was prepared by dissolving 196.2 mg of material in 1.75 mL saline. For each experiment involving 10 mg/mL, 0.5 mL of stock solution was transferred to an HPLC vial whereas for each experiment involving 100 mg/mL, 0.15 mL of stock solution was transferred to an HPLC vial. The HPLC vials were closed with a screw cap and placed in a Crystal16™ apparatus and incubated at different temperatures.
After the incubation time, the samples were diluted with acetonitrile/water 1:1 (v/v) and measured by LCMS to determine the API peak area.

[3] = Bioavailability study in rats; format: in vivo; conditions: male, Wistar, blood, rat, single dose, vs 1 mg/kg intravenous, read-out: Bioavailability (Fabs)
Protocol: Male Wistar rats were used. Six groups of four animals each were used. Two groups were administered a single intravenous dose of 1 mg/kg of the free base or the HCl2 salt, one group was administered a single oral dose of 3 mg/kg of the free base, and three groups were administered a single oral dose of 3, 10 or 50 mg/kg of the HCl2 salt. Blood samples were collected after 0.25, 0.5, 1, 2, 4, 6, 8 and 24 hours following intravenous administration, and after 0.083, 0.25, 0.5, 1, 2, 4, 6, 8 and 24 hours following oral administration. The samples were analyzed using an LC/MS/MS system. The bioavailability (Fabs) is shown in Table 7 and was calculated as follows: […]

[4] = Dynamic vapour sorption (DVS) hygroscopicity; format: physicochemical; conditions: for hygroscopicity (classification as per the European Pharmacopoeia) / water uptake: 25° C./80% RH; for form by HT-XRPD after the DVS cycle: sorption-desorption-sorption 40-95-0-45% RH
Protocol: Analyses were performed on a DVS-1 system from Surface Measurement Systems (London, UK). Weight equilibration per step was set at dm/dt<0.002 for a minimum of 1 hour or a maximum of 6 hours. The sample was subjected to a sorption-desorption-sorption cycle running from 40 to 95 to 0 to 45% RH, at a constant temperature of 25° C. One cycle consisted of 20 steps, those between 0 and 90% RH were taken in 10% RH each. Afterwards the sample was measured by HT-XRPD.
Forms HCl2 and HCl3 were subjected to DVS measurements to determine the hygroscopicity of these two forms. The material initially took up water slowly with increasing relative humidity (RH) up to about 90% RH. The change in mass was approximately 3.3%, corresponding to about 1 molecule of water per molecule of PN6047. […] The material was then gradually dried from 95 to 0% RH in steps of 10% RH. The corresponding mass change upon drying was different than the initial mass increase upon hydration. Finally, from 0 to 40% RH, the water uptake proceeded in the same way as in the preceding dehydration step. […] It is believed that the uptake of the 2 additional molecules of water may have led to a change from form HCl2 to form HCl3.
The material gradually took up water with increasing relative humidity (RH) up to 95% RH. […] The material was then gradually dried from 95 to 0% RH in steps of 10% RH. The corresponding mass change upon drying was approximately the same as the initial mass increase upon hydration. Finally, from 0 to 40% RH, the water uptake proceeded in the same way as the preceding dehydration step.

[5] = Incubation at high humidity or under vacuum, form by XRPD; format: physicochemical; conditions: 2 days
Protocol: To further understand the hygroscopic nature of form HCl2, a sample of the material was incubated at 85% RH at room temperature for 2 days.
A sample of Form HCl3 was further incubated at 50° C./1 mbar for 2 days to determine whether conversion to Form HCl2 would take place.

[6] = Solubility in water at pH 7; format: physicochemical
Protocol: For instance, whereas the free base only sparingly dissolves in water at pH 7 (<1 mg/mL), Forms HCl2 and HCl3 are highly soluble in water at the same pH (>100 mg/mL). The higher solubility of the HCl salt allows continued investigation of the compound at higher concentrations, which is advantageous e.g. in toxicology studies. […] It is expected that the increased bioavailability (and thus the increased exposure) of the HCl salt may lead to an improved efficacy of PN6047 in the treatment of pain and other indications as mentioned herein. Possibly, the increased bioavailability may allow the HCl salt to be administered in substantially lower doses than the free base. The unexpected increase in bioavailability of the HCl salt may also enable the use of sustained release formulations of the compound.

In the case of `CN(C)C(=O)c1ccc(C(=C2CCN(Cc3cncs3)CC2)c2cccc(C(N)=O)c2)cc1` [Form HCl2, 4-[(3-carbamoylphenyl)[1-(1,3-thiazol-5-ylmethyl)piperidin-4-ylidene]methyl]-N,N-dimethylbenzamide], the time physically stable ([1]; 25° C./60% RH, 40° C./75% RH and 60° C./38% RH) is reported as ≥ 4 weeks, the “LCMS API” value ([1]; 1 week, 25° C./60% RH) is reported as 100 area % and the TGA mass loss ([1]; 1 week, 25° C./60% RH) is reported as 1.8 wt %. The XRPD ([1]; 1 week, 25° C./60% RH) was “HCl2”, the “LCMS API” value ([1]; 1 week, 40° C./75% RH) was 100 area % and the TGA mass loss ([1]; 1 week, 40° C./75% RH) was 1.9 wt %. For the same molecule, the XRPD ([1]; 1 week, 40° C./75% RH) was “HCl2”, the “LCMS API” value ([1]; 1 week, 60° C./38% RH) was 100 area % and the TGA mass loss ([1]; 1 week, 60° C./38% RH) was 1.9 wt %. For the same molecule, the XRPD ([1]; 1 week, 60° C./38% RH) was “HCl2”, the “LCMS API” value ([1]; 4 weeks, 25° C./60% RH) was 100 area % and the TGA mass loss ([1]; 4 weeks, 25° C./60% RH) was 1.5 wt %. For the same molecule, the XRPD ([1]; 4 weeks, 25° C./60% RH) was “HCl2”, the “LCMS API” value ([1]; 4 weeks, 40° C./75% RH) was 100 area % and the TGA mass loss ([1]; 4 weeks, 40° C./75% RH) was 1.6 wt %. The XRPD ([1]; 4 weeks, 40° C./75% RH) was “HCl2”, the “LCMS API” value ([1]; 4 weeks, 60° C./38% RH) was 100 area % and the TGA mass loss ([1]; 4 weeks, 60° C./38% RH) was 1.9 wt %. The XRPD ([1]; 4 weeks, 60° C./38% RH) was “HCl2”, the “LCMS API” value ([1]; incubation time 0) was 100 area % and the TGA mass loss ([1]; incubation time 0) was 1.0 wt %. The XRPD ([1]; incubation time 0) was “HCl2”, the “time chemically stable in saline” value [2] was “up to 1 week” and the “LCMS API” value ([2]; 10 mg/mL, 5° C., 3 d) was 99.9 area %. For the same molecule, the “LCMS API” value ([2]; 10 mg/mL, 5° C., 4 d) was 99.9 area %, the “LCMS API” value ([2]; 10 mg/mL, 5° C., 7 d) was 99.9 area % and the “LCMS API” value ([2]; 10 mg/mL, 25° C., 0 d) was 99.9 area %. For the same molecule, the “LCMS API” value ([2]; 10 mg/mL, 25° C., 3 d) was 99.9 area %, the “LCMS API” value ([2]; 10 mg/mL, 25° C., 4 d) was 99.9 area % and the “LCMS API” value ([2]; 10 mg/mL, 25° C., 7 d) was 99.9 area %. The “LCMS API” value ([2]; 10 mg/mL, 40° C., 3 d) was 99.9 area %, the “LCMS API” value ([2]; 10 mg/mL, 40° C., 4 d) was 99.9 area % and the “LCMS API” value ([2]; 10 mg/mL, 40° C., 7 d) was 99.9 area %. The “LCMS API” value ([2]; 100 mg/mL, 5° C., 3 d) was 99.9 area %, the “LCMS API” value ([2]; 100 mg/mL, 5° C., 4 d) was 99.9 area % and the “LCMS API” value ([2]; 100 mg/mL, 5° C., 7 d) was 99.9 area %. For the same molecule, the “LCMS API” value ([2]; 100 mg/mL, 25° C., 0 d) was 99.9 area %, the “LCMS API” value ([2]; 100 mg/mL, 25° C., 3 d) was 99.9 area % and the “LCMS API” value ([2]; 100 mg/mL, 25° C., 4 d) was 99.9 area %. The “LCMS API” value ([2]; 100 mg/mL, 25° C., 7 d) was 99.9 area %, the “LCMS API” value ([2]; 100 mg/mL, 40° C., 3 d) was 99.9 area % and the “LCMS API” value ([2]; 100 mg/mL, 40° C., 4 d) was 99.9 area %. For the same molecule, the “LCMS API” value ([2]; 100 mg/mL, 40° C., 7 d) was 100.0 area %, the bioavailability ([3]; oral 3 mg/kg) was 24% and the bioavailability ([3]; oral 10 mg/kg) was 35.5%. The bioavailability ([3]; oral 50 mg/kg) was 35% and 34.6%, the “relative humidity at which the form absorbs water and transforms into Form HCl3” value [4] was > 85 % RH and the “relative humidity up to which the form is believed stable” value [4] was “up to 85 % RH”. The mass increase ([4]; DVS, 25° C., from 90 to 95% RH) was 10.0%, the change in mass ([4]; DVS, 25° C., increasing RH up to about 90% RH) was “approximately 3.3%” and the “hygroscopicity (classification as per the European Pharmacopoeia)” value ([4]; DVS) was “moderate hygroscopicity”. For the same molecule, the water uptake ([4]; DVS) was “approximately 2.2%”, the “hygroscopicity (classification as per the European Pharmacopoeia)” value ([4]; DVS, listed as form HCl2) was “moderately hygroscopic” and the water uptake ([4]; DVS, listed as form HCl2) was “approximately 2.2%”. For the same molecule, the “form by HT-XRPD after the DVS cycle” value ([4]; 25° C., listed as form HCl2) was “conversion had taken place from form HCl2 to form HCl3” and the “form by XRPD after incubation” value ([5]; 85% RH, room temperature) was “conversion into form HCl3 had taken place”.
For `CN(C)C(=O)c1ccc(C(=C2CCN(Cc3cncs3)CC2)c2cccc(C(N)=O)c2)cc1` [Free base, 4-[(3-carbamoylphenyl)[1-(1,3-thiazol-5-ylmethyl)piperidin-4-ylidene]methyl]-N,N-dimethylbenzamide], the bioavailability ([3]; oral 3 mg/kg) was 8% and the solubility in water [6] was < 1000 µg/mL.
With `CN(C)C(=O)c1ccc(C(=C2CCN(Cc3cncs3)CC2)c2cccc(C(N)=O)c2)cc1` [Form HCl3, 4-[(3-carbamoylphenyl)[1-(1,3-thiazol-5-ylmethyl)piperidin-4-ylidene]methyl]-N,N-dimethylbenzamide] the “hygroscopicity (classification as per the European Pharmacopoeia)” value ([4]; DVS, listed as form HCl3) was “moderately hygroscopic”, the water uptake ([4]; DVS, listed as form HCl3) was “approximately 8.0%” and the “form by HT-XRPD after the DVS cycle” value ([4]; 25° C., listed as form HCl3) was “form HCl3 was still present”. The form after drying ([5]; 50° C./1 mbar) was “poorly crystalline phase of Form HCl3; also recorded: less crystalline phase of Form HCl3”.

From patent US12698279B2, “Polymorphs of a hydrochloride salt of PN6047” (Pharmnovo AB, priority 2020, dated 2026)
